Reference: patent US9040545B2, “Heterocyclyl pyrazolopyrimidine analogues as selective JAK inhibitors” (Cellzome Limited, priority 2010, dated 2015)

Target: T1, Aurora A (Homo sapiens, UniProt O14965)
T1 construct: cell lysates from Jurkat cells (ATCC TIB-152) used; endogenous in cells; host or cells: Jurkat cells (ATCC TIB-152), treated with pervanadate
T1 sequence (O14965 1-403): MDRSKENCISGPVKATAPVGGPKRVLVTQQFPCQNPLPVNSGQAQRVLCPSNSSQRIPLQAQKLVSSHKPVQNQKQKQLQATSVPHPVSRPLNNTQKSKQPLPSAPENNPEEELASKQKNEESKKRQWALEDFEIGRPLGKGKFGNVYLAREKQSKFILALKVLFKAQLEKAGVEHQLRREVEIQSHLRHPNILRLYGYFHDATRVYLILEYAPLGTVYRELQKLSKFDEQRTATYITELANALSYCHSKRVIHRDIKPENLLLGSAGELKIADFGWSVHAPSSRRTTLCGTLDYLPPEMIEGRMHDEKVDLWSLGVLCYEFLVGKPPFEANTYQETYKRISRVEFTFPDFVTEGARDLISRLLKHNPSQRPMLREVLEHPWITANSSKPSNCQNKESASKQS
Assay: Kinobeads assay, Aurora A
Format: binding
Details: for IC50: lysate of pervanadate-treated Jurkat cells, read-out: Inhibition values (IC50) Aur A

| JAK3/AurA Fold Selectivity | IC50 [µM] | Compound |
| --- | --- | --- |
| 10-50 Fold | 0.1 to 1 | Cn1cc(Nc2ncc3cnn(Cc4cccc(N5CCC6(COC6)C5)c4)c3n2)cn1 [Example 104, 1-(3-(2-oxa-6-azaspiro[3.4]octan-6-yl)benzyl)-N-(1-methyl-1H-pyrazol-4-yl)-1H-pyrazolo[3,4-d]pyrimidin-6-amine] |
| 3-10 Fold | < 0.1 | N#CCCn1cc(Nc2ncc3cnn(Cc4cc(F)cc(N5CCOCC5=O)c4)c3n2)cn1 [Example 107, 3-(4-((1-(3-fluoro-5-(3-oxomorpholino)benzyl)-1H-pyrazolo[3,4-d]pyrimidin-6-yl)amino)-1H-pyrazol-1-yl)propanenitrile] |
| 3-10 Fold | < 0.1 | O=C(Cn1cc(Nc2ncc3cnn(Cc4cc(F)cc(N5CCOCC5=O)c4)c3n2)cn1)N1CCNCC1 [Example 109, 4-(3-fluoro-5-((6-((1-(2-oxo-2-(piperazin-1-yl)ethyl)-1H-pyrazol-4-yl)amino)-1H-pyrazolo[3,4-d]pyrimidin-1-yl)methyl)phenyl)morpholin-3-one] |
| 10-50 Fold | 0.1 to 1 | C[C@H]1COCCN1c1cccc(Cn2ncc3cnc(Nc4cnn(C)c4)nc32)c1 [Example 112, (S)-N-(1-methyl-1H-pyrazol-4-yl)-1-(3-(3-methylmorpholino)benzyl)-1H-pyrazolo[3,4-d]pyrimidin-6-amine] |
| >50 Fold | 1 to 10 | C[C@@H]1COCCN1c1cccc(Cn2ncc3cnc(Nc4cnn(C)c4)nc32)c1 [Example 113, (R)-N-(1-methyl-1H-pyrazol-4-yl)-1-(3-(3-methylmorpholino)benzyl)-1H-pyrazolo[3,4-d]pyrimidin-6-amine] |
| 10-50 Fold | 0.1 to 1 | CCn1cc(-c2cccc(Cn3ncc4cnc(Nc5cnn(C)c5)nc43)c2)cn1 [Example 116, 1-(3-(1-ethyl-1H-pyrazol-4-yl)benzyl)-N-(1-methyl-1H-pyrazol-4-yl)-1H-pyrazolo[3,4-d]pyrimidin-6-amine] |
| 10-50 Fold | 1 to 10 | Cn1cc(Nc2ncc3cnn(Cc4cccc(-c5cnn(C)c5)c4F)c3n2)cn1 [Example 123, 1-(2-fluoro-3-(1-methyl-1H-pyrazol-4-yl)benzyl)-N-(1-methyl-1H-pyrazol-4-yl)-1H-pyrazolo[3,4-d]pyrimidin-6-amine] |
| 10-50 Fold | 0.1 to 1 | Cn1cc(-c2cccc(Cn3ncc4cnc(Nc5cnn(CCO)c5)nc43)c2F)cn1 [Example 124, 2-(4-((1-(2-fluoro-3-(1-methyl-1H-pyrazol-4-yl)benzyl)-1H-pyrazolo[3,4-d]pyrimidin-6-yl)amino)-1H-pyrazol-1-yl)ethanol] |
| 10-50 Fold | 1 to 10 | Cn1cc(Nc2ncc3cnn(Cc4cc(F)cc(-c5cnn(C)c5)c4)c3n2)cn1 [Example 125, 1-(3-fluoro-5-(1-methyl-1H-pyrazol-4-yl)benzyl)-N-(1-methyl-1H-pyrazol-4-yl)-1H-pyrazolo[3,4-d]pyrimidin-6-amine] |
| >50 Fold | 1 to 10 | Cn1cc(Nc2ncc3cnn(Cc4cc(-c5cnn(C)c5)cc(F)c4F)c3n2)cn1 [Example 126, 1-(2,3-difluoro-5-(1-methyl-1H-pyrazol-4-yl)benzyl)-N-(1-methyl-1H-pyrazol-4-yl)-1H-pyrazolo[3,4-d]pyrimidin-6-amine] |
| 10-50 Fold | 0.1 to 1 | Cn1cc(-c2cc(F)c(F)c(Cn3ncc4cnc(Nc5cnn(CCO)c5)nc43)c2)cn1 [Example 127, 2-(4-((1-(2,3-difluoro-5-(1-methyl-1H-pyrazol-4-yl)benzyl)-1H-pyrazolo[3,4-d]pyrimidin-6-yl)amino)-1H-pyrazol-1-yl)ethanol] |

Second part, the compound before the results:

| Compound | JAK3/AurA Fold Selectivity | IC50 [µM] |
| --- | --- | --- |
| O=C1COCCN1c1cc(F)cc(Cn2ncc3cnc(Nc4cnn(C5CCNCC5)c4)nc32)c1 [Example 102, 4-(3-fluoro-5-((6-((1-(piperidin-4-yl)-1H-pyrazol-4-yl)amino)-1H-pyrazolo[3,4-d]pyrimidin-1-yl)methyl)phenyl)morpholin-3-one] | 10-50 Fold | < 0.1 |
| Cn1cc(Nc2ncc3cnn(Cc4cccc(N5CCOCC5)c4Cl)c3n2)cn1 [Example 103, 1-(2-chloro-3-morpholinobenzyl)-N-(1-methyl-1H-pyrazol-4-yl)-1H-pyrazolo[3,4-d]pyrimidin-6-amine] | 3-10 Fold | < 0.1 |
| O=C1CC(Cn2cc(Nc3ncc4cnn(Cc5cc(F)cc(N6CCOCC6=O)c5)c4n3)cn2)CN1 (stereo not shown) [Example 105, 4-(3-fluoro-5-((6-((1-((5-oxopyrrolidin-3-yl)methyl)-1H-pyrazol-4-yl)amino)-1H-pyrazolo[3,4-d]pyrimidin-1-yl)methyl)phenyl)morpholin-3-one] | 10-50 Fold | 0.1 to 1 |
| O=C1COCCN1c1cc(F)cc(Cn2ncc3cnc(Nc4cnn(CCS(=O)(=O)NC5CC5)c4)nc32)c1 [Example 106, N-cyclopropyl-2-(4-((1-(3-fluoro-5-(3-oxomorpholino)benzyl)-1H-pyrazolo[3,4-d]pyrimidin-6-yl)amino)-1H-pyrazol-1-yl)ethanesulfonamide] | 10-50 Fold | 0.1 to 1 |
| Cn1cc(Nc2ncc3cnn(Cc4cccc(N5CCC(=O)CC5)c4)c3n2)cn1 [Example 108, 1-(3-((6-((1-methyl-1H-pyrazol-4-yl)amino)-1H-pyrazolo[3,4-d]pyrimidin-1-yl)methyl)phenyl)piperidin-4-one] | 3-10 Fold | 0.1 to 1 |
| Cn1cc(Nc2ncc3cnn(Cc4c(F)c(F)cc(C(=O)N5CCOCC5)c4F)c3n2)cn1 [Example 110, morpholino(2,4,5-trifluoro-3-((6-((1-methyl-1H-pyrazol-4-yl)amino)-1H-pyrazolo[3,4-d]pyrimidin-1-yl)methyl)phenyl)methanone] | >50 Fold | 1 to 10 |
| O=C(c1cc(F)c(F)c(Cn2ncc3cnc(Nc4cnn(CCO)c4)nc32)c1F)N1CCOCC1 [Example 111, morpholino(2,4,5-trifluoro-3-((6-((1-(2-hydroxyethyl)-1H-pyrazol-4-yl)amino)-1H-pyrazolo[3,4-d]pyrimidin-1-yl)methyl)phenyl)methanone] | 10-50 Fold | 0.1 to 1 |
| Cn1cc(Nc2ncc3cnn(Cc4cccc(NC5COC5)c4)c3n2)cn1 [Example 114, N-(1-methyl-1H-pyrazol-4-yl)-1-(3-(oxetan-3-ylamino)benzyl)-1H-pyrazolo[3,4-d]pyrimidin-6-amine] | 3-10 Fold | < 0.1 |
| Cn1cc(Nc2ncc3cnn(Cc4cccc(-c5cnn(C)c5)c4)c3n2)cn1 [Example 115, N-(1-methyl-1H-pyrazol-4-yl)-1-(3-(1-methyl-1H-pyrazol-4-yl)benzyl)-1H-pyrazolo[3,4-d]pyrimidin-6-amine] | 10-50 Fold | 0.1 to 1 |
| CC(C)n1cc(-c2cccc(Cn3ncc4cnc(Nc5cnn(C)c5)nc43)c2)cn1 [Example 117, 1-(3-(1-isopropyl-1H-pyrazol-4-yl)benzyl)-N-(1-methyl-1H-pyrazol-4-yl)-1H-pyrazolo[3,4-d]pyrimidin-6-amine] | 3-10 Fold | 0.1 to 1 |
| Cn1cc(Nc2ncc3cnn(Cc4cccc(-c5cn[nH]c5)c4)c3n2)cn1 [Example 118, 1-(3-(1H-pyrazol-4-yl)benzyl)-N-(1-methyl-1H-pyrazol-4-yl)-1H-pyrazolo[3,4-d]pyrimidin-6-amine] | 10-50 Fold | 1 to 10 |
| CCCn1cc(-c2cccc(Cn3ncc4cnc(Nc5cnn(C)c5)nc43)c2)cn1 [Example 119, N-(1-methyl-1H-pyrazol-4-yl)-1-(3-(1-propyl-1H-pyrazol-4-yl)benzyl)-1H-pyrazolo[3,4-d]pyrimidin-6-amine] | 10-50 Fold | 1 to 10 |
| Cn1cc(Nc2ncc3cnn(Cc4cccc(-c5cnn(CC(N)=O)c5)c4)c3n2)cn1 [Example 120, 2-(4-(3-((6-((1-methyl-1H-pyrazol-4-yl)amino)-1H-pyrazolo[3,4-d]pyrimidin-1-yl)methyl)phenyl)-1H-pyrazol-1-yl)acetamide] | 10-50 Fold | 0.1 to 1 |
| Cn1cc(Nc2ncc3cnn(Cc4cccc(-c5cnn(CCO)c5)c4)c3n2)cn1 [Example 121, 2-(4-(3-((6-((1-methyl-1H-pyrazol-4-yl)amino)-1H-pyrazolo[3,4-d]pyrimidin-1-yl)methyl)phenyl)-1H-pyrazol-1-yl)ethanol] | 10-50 Fold | 0.1 to 1 |
| Cn1cc(-c2cccc(Cn3ncc4cnc(Nc5cnn(CCO)c5)nc43)c2)cn1 [Example 122, 2-(4-((1-(3-(1-methyl-1H-pyrazol-4-yl)benzyl)-1H-pyrazolo[3,4-d]pyrimidin-6-yl)amino)-1H-pyrazol-1-yl)ethanol] | 10-50 Fold | 0.1 to 1 |
